From patent US10377753B2, “Substituted 4-azaindoles and their use as GluN2B receptor modulators” (Janssen Pharmaceutica NV, priority 2015, dated 2019) come the findings set out here.

Counter-ions that a name gives are not always drawn.

The assay deals with cloned human NR1/NR2B ion channels (Homo sapiens (Human), UniProt Q05586+Q13224). Nature of the assay: HNR2BC: effects of test articles on cloned human NR1/NR2B ion channels expressed in mammalian cells (FLIPR calcium flux). It is filed as cell-based. Conditions: Table 5. In outline:
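Compounds were added to dye-loaded cells for 5 min with fluorescence monitored for agonism, followed by co-agonists (glutamate ~EC80, glycine 10 μM saturating) for 5 min. Cells stably expressed inducible human NR1/NR2B, and the buffer was pH 7.4. The FLIPR Ca2+ flux signal was normalized against control wells.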

Setting [1] is: cloned human NR1/NR2B ion channels.

A word on the IC50: it is the midpoint of a concentration-inhibition curve.

Chain of cloned human NR1/NR2B ion channels (Q13224 27-1484, other chains not shown): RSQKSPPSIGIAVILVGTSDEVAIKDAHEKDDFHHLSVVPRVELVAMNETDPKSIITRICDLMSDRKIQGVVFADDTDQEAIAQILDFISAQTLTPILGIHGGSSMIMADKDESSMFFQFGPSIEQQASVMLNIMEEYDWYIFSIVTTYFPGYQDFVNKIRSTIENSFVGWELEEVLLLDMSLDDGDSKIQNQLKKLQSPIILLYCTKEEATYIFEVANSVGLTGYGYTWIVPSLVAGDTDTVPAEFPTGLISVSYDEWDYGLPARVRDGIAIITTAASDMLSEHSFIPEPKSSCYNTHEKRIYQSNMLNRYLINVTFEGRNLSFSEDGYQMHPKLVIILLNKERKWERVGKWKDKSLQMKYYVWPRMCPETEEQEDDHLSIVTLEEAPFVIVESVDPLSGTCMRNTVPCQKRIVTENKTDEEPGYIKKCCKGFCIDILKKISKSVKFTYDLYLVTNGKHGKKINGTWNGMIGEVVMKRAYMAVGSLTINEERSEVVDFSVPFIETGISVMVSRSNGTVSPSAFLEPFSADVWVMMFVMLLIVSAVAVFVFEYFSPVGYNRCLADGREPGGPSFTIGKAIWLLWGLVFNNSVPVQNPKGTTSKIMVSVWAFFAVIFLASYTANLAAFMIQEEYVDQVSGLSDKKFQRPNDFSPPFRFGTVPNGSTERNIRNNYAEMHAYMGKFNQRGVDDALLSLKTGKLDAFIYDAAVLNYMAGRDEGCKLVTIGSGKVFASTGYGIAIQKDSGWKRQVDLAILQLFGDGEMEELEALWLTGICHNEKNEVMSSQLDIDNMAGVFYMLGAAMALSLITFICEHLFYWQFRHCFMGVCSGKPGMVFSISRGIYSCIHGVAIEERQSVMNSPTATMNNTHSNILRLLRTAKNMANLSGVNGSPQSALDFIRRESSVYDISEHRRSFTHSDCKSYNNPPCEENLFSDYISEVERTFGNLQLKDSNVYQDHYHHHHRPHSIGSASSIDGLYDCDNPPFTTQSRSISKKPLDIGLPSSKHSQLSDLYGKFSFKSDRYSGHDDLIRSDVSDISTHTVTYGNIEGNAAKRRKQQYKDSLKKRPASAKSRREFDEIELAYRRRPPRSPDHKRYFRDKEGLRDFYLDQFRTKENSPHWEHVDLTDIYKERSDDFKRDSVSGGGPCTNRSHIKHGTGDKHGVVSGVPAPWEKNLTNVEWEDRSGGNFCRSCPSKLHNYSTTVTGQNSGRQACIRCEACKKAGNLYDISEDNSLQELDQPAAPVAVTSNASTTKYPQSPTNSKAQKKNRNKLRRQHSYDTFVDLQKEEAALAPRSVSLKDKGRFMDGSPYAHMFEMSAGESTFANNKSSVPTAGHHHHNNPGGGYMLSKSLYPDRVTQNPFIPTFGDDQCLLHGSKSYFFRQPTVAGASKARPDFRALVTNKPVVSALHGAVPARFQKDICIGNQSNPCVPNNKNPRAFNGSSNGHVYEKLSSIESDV

As to `FC(F)(F)c1cccc(-c2cnc3c(Cl)cn(Cc4cccnc4)c3c2)c1` [Example 612, 3-Chloro-1-(3-pyridylmethyl)-6-[3-(trifluoromethyl)phenyl]pyrrolo[3,2-b]pyridine], the IC50 under setting [1] was 31.6 nM. `Cc1ccc(-c2cnc3c(F)cn(CC(=O)N4CC(F)C4)c3c2)s1` [Example 402, 1-(3-Fluoroazetidin-1-yl)-2-[3-fluoro-6-(5-methyl-2-thienyl)pyrrolo[3,2-b]pyridin-1-yl]ethanone trifluoroacetate salt]: the IC50 under setting [1] is 251 nM. For `Cc1cccc(-c2cnc3c(Br)cn(CC(=O)N4CCC4)c3c2)c1` [Example 22, 1-(Azetidin-1-yl)-2-[3-bromo-6-(m-tolyl)pyrrolo[3,2-b]pyridin-1-yl]ethanone], the IC50 (cloned human NR1/NR2B) was 25.1 nM.

Turning to `O=C(Cn1cc(Br)c2ncc(-c3ccc(F)cc3)cc21)NC1CC1` [Example 17, 2-[3-Bromo-6-(4-fluorophenyl)pyrrolo[3,2-b]pyridin-1-yl]-N-cyclopropyl-acetamide], where the note is “cloned human NR1/NR2B”, the IC50 is 50.1 nM. For `O=C(Cn1ccc2ncc(-c3cccc(C(F)F)c3)cc21)N1CC(F)C1` [Example 458, 2-[6-[3-(Difluoromethyl)phenyl]pyrrolo[3,2-b]pyridin-1-yl]-1-(3-fluoroazetidin-1-yl)ethanone], the IC50 under setting [1] is 398 nM.

For the compound `O=C(Cn1cc(Cl)c2ncc(-c3ccc(F)c(C(F)(F)F)c3)cc21)N1CC(F)C1` [Example 35, 2-[3-Chloro-6-[4-fluoro-3-(trifluoromethyl)phenyl]pyrrolo[3,2-b]pyridin-1-yl]-1-(3-fluoroazetidin-1-yl)ethanone], the IC50 (cloned human NR1/NR2B) was 200 nM. Same read-out and setting: then `O=C(Cn1ccc2ncc(-c3cc(F)cc(F)c3)cc21)N1CCCC1` [Example 122, 2-[6-(3,5-Difluorophenyl)pyrrolo[3,2-b]pyridin-1-yl]-1-pyrrolidin-1-yl-ethanone], with 39.8 nM; and `O=C(Cn1ccc2ncc(-c3ccc(F)c(C(F)(F)F)c3)cc21)N1CC(F)C1` [Example 262, 1-(3-Fluoroazetidin-1-yl)-2-[6-[4-fluoro-3-(trifluoromethyl)phenyl]pyrrolo[3,2-b]pyridin-1-yl]ethanone trifluoroacetate salt], with 100 nM. For `CN(C)C(=O)Cn1cc(Cl)c2ncc(-c3ccc(C(F)(F)F)s3)cc21` [Example 603, 2-[3-Chloro-6-[5-(trifluoromethyl)-2-thienyl]pyrrolo[3,2-b]pyridin-1-yl]-N,N-dimethyl-acetamide], under setting [1], the IC50 is 63.1 nM. Same read-out and setting: then `Cc1csc(-c2cnc3ccn(CC(=O)N4CC(F)C4)c3c2)c1` [Example 370, 1-(3-Fluoroazetidin-1-yl)-2-[6-(4-methyl-2-thienyl)pyrrolo[3,2-b]pyridin-1-yl]ethanone], with 31.6 nM.

Turning to `O=C(Cn1cc(Br)c2ncc(-c3ccccc3)cc21)NC1CC1` [Example 14, 2-(3-Bromo-6-phenyl-pyrrolo[3,2-b]pyridin-1-yl)-N-cyclopropyl-acetamide], for the setting “cloned human NR1/NR2B”, the IC50 was 126 nM. For the compound `O=C(Cn1cc(Br)c2ncc(-c3ccc(F)cc3)cc21)N1CCOCC1` [Example 20, 2-[3-Bromo-6-(4-fluorophenyl)pyrrolo[3,2-b]pyridin-1-yl]-1-morpholino-ethanone], the IC50 (cloned human NR1/NR2B) was 50.1 nM. For the compound `O=C(Cn1ccc2ncc(-c3cc(F)c(F)c(F)c3)cc21)N1CC(F)C1` [Example 371, 1-(3-Fluoroazetidin-1-yl)-2-[6-(3,4,5-trifluorophenyl)pyrrolo[3,2-b]pyridin-1-yl]ethanone], the IC50 under setting [1] was 15.8 nM. Still for that read-out and setting: then `O=C(Cn1cc(Cl)c2ncc(-c3cc(Cl)cs3)cc21)N1CC(F)C1` [Example 418, 2-[3-Chloro-6-(4-chloro-2-thienyl)pyrrolo[3,2-b]pyridin-1-yl]-1-(3-fluoroazetidin-1-yl)ethanone], with 501 nM.

Take `CCC(=O)Cn1cc(F)c2ncc(-c3ccc(Cl)s3)cc21` [Example 338, 1-[6-(5-Chloro-2-thienyl)-3-fluoro-pyrrolo[3,2-b]pyridin-1-yl]butan-2-one]: the IC50 (cloned human NR1/NR2B) is 15.8 nM. Take `O=C(Cn1ccc2ncc(-c3ccccc3F)cc21)N1CC(F)C1` [Example 457, 1-(3-Fluoroazetidin-1-yl)-2-[6-(2-fluorophenyl)pyrrolo[3,2-b]pyridin-1-yl]ethanone]: under setting [1], the IC50 was 15.8 nM. Consider `O=C(Cn1ccc2ncc(-c3ccnc(C(F)(F)F)c3)cc21)NC1CC1` [Example 110, N-Cyclopropyl-2-[6-[2-(trifluoromethyl)-4-pyridyl]pyrrolo[3,2-b]pyridin-1-yl]acetamide], for which the IC50 (cloned human NR1/NR2B) was 251 nM. The same measure, in the same setting: then `Cc1cccc(-c2cnc3c(Cl)cn(CC(=O)N4CC(F)C4)c3c2)c1` [Example 54, 2-[3-Chloro-6-(m-tolyl)pyrrolo[3,2-b]pyridin-1-yl]-1-(3-fluoroazetidin-1-yl)ethanone], with 63.1 nM; and `Cc1cc(-c2cnc3ccn(CC(=O)N4CCC(O)CC4)c3c2)ccc1F` [Example 188, 2-[6-(4-Fluoro-3-methyl-phenyl)pyrrolo[3,2-b]pyridin-1-yl]-1-(4-hydroxy-1-piperidyl)ethanone trifluoroacetate salt], with 50.1 nM; and `Cc1cc(-c2cnc3ccn(CC(=O)C4CC4)c3c2)ccc1F` [Example 186, 1-Cyclopropyl-2-[6-(4-fluoro-3-methyl-phenyl)pyrrolo[3,2-b]pyridin-1-yl]ethanone trifluoroacetate salt], with 39.8 nM. For `O=C(Cn1ccc2ncc(-c3sccc3Cl)cc21)N1CCC1` [Example 403, 1-(Azetidin-1-yl)-2-[6-(3-chloro-2-thienyl)pyrrolo[3,2-b]pyridin-1-yl]ethanone], the IC50 under setting [1] was 100 nM. In the case of `Cc1cc(-c2cnc3c(F)cn(CC(=O)C4CC4)c3c2)ccc1F` [Example 316, 1-Cyclopropyl-2-[3-fluoro-6-(4-fluoro-3-methyl-phenyl)pyrrolo[3,2-b]pyridin-1-yl]ethanone], where the note is “cloned human NR1/NR2B”, the half-inhibitory concentration (IC50) is 39.8 nM.

In the case of `O=C(Cn1ccc2ncc(-c3cccc(F)c3)cc21)N1CCC1` [Example 72, 1-(Azetidin-1-yl)-2-[6-(3-fluorophenyl)pyrrolo[3,2-b]pyridin-1-yl]ethanone], where the note is “cloned human NR1/NR2B”, the IC50 was 251 nM. For the compound `Cc1ccc(-c2cnc3ccn(CC(=O)NC4CC4)c3c2)cc1` [Example 77, N-Cyclopropyl-2-[6-(p-tolyl)pyrrolo[3,2-b]pyridin-1-yl]acetamide], the 50% inhibitory concentration (IC50) (cloned human NR1/NR2B) was 251 nM.

Take `Cc1cc2ncc(-c3ccccc3)cc2n1CC(=O)N1CCOCC1` [Example 52, 2-(2-Methyl-6-phenyl-pyrrolo[3,2-b]pyridin-1-yl)-1-morpholino-ethanone]: the IC50 (cloned human NR1/NR2B) was 1260 nM. The same measure, in the same setting: then `O=C(Cn1ccc2ncc(-c3ccc(F)cc3)cc21)N1CC(O)(C(F)(F)F)C1` [Example 203, 2-[6-(4-Fluorophenyl)pyrrolo[3,2-b]pyridin-1-yl]-1-[3-hydroxy-3-(trifluoromethyl)azetidin-1-yl]ethanone], with 398 nM; and `Cc1ccc(-c2cnc3ccn(CC(=O)N4CCOCC4)c3c2)cc1` [Example 90, 1-Morpholino-2-[6-(p-tolyl)pyrrolo[3,2-b]pyridin-1-yl]ethanone], with 63.1 nM.

With `O=C(Cn1ccc2ncc(-c3ccc(F)cc3)cc21)c1ccc(F)cc1` [Example 227, 1-(4-Fluorophenyl)-2-[6-(4-fluorophenyl)pyrrolo[3,2-b]pyridin-1-yl]ethanone], the IC50 (cloned human NR1/NR2B) was 794 nM.

Take `O=C(Cn1cc(F)c2ncc(-c3cccc(Cl)c3F)cc21)N1CCC1` [Example 479, 1-(Azetidin-1-yl)-2-[6-(3-chloro-2-fluoro-phenyl)-3-fluoro-pyrrolo[3,2-b]pyridin-1-yl]ethanone]: the IC50 under setting [1] was 25.1 nM. Consider `Cc1cc(-c2cnc3ccn(CC(=O)C(C)(C)C)c3c2)ccc1F` [Example 141, 1-[6-(4-Fluoro-3-methyl-phenyl)pyrrolo[3,2-b]pyridin-1-yl]-3,3-dimethyl-butan-2-one], for which the IC50 (cloned human NR1/NR2B) was 398 nM. The same measure, in the same setting: then `Cc1cc(-c2cnc3ccn(CC(=O)N4CC5CC5C4)c3c2)ccc1F` (racemic) [Example 189, (R/S)-1-(3-Azabicyclo[3.1.0]hexan-3-yl)-2-[6-(4-fluoro-3-methyl-phenyl)pyrrolo[3,2-b]pyridin-1-yl]ethanone trifluoroacetate salt], with 126 nM.

As to `Cc1cn(CC(=O)N(C)C)c2cc(-c3ccccc3)cnc12` [Example 576, N,N-Dimethyl-2-(3-methyl-6-phenyl-pyrrolo[3,2-b]pyridin-1-yl)acetamide], under setting [1], the IC50 was 100 nM. As for `Fc1ccc(-c2cnc3ccn(CC4CCCCO4)c3c2)cc1` (racemic) [Example 228, (R/S)-6-(4-Fluorophenyl)-1-(tetrahydropyran-2-ylmethyl)pyrrolo[3,2-b]pyridine trifluoroacetate salt], the IC50 (cloned human NR1/NR2B) is 631 nM. `O=C(Cn1cc(Cl)c2ncc(-c3ccc(F)c(C(F)(F)F)c3)cc21)N1CC(F)(F)C1` [Example 40, 2-[3-Chloro-6-[4-fluoro-3-(trifluoromethyl)phenyl]pyrrolo[3,2-b]pyridin-1-yl]-1-(3,3-difluoroazetidin-1-yl)ethanone]: the half-inhibitory concentration (IC50) (cloned human NR1/NR2B) was 501 nM. Turning to `CCc1cccc(-c2cnc3c(F)cn(CC(=O)N4CCC4)c3c2)c1` [Example 498, 1-(Azetidin-1-yl)-2-[6-(3-ethylphenyl)-3-fluoro-pyrrolo[3,2-b]pyridin-1-yl]ethanone], the IC50 under setting [1] is 79.4 nM. For the compound `Cc1cccc(-c2cnc3c(C)cn(CC(=O)N(C)C)c3c2)c1F` [Example 562, 2-[6-(2-Fluoro-3-methyl-phenyl)-3-methyl-pyrrolo[3,2-b]pyridin-1-yl]-N,N-dimethyl-acetamide], the IC50 under setting [1] is 50.1 nM. Regarding `Cc1cc(F)ccc1-c1cnc2ccn(CC(=O)N3CC(F)(F)C3)c2c1` [Example 261, 1-(3,3-Difluoroazetidin-1-yl)-2-[6-(4-fluoro-2-methyl-phenyl)pyrrolo[3,2-b]pyridin-1-yl]ethanone trifluoroacetate salt], where the note is “cloned human NR1/NR2B”, the IC50 is 50.1 nM. For the compound `O=C(Cn1ccc2ncc(-c3ccc(F)cc3)cc21)N1CCC(F)(F)C1` [Example 217, 1-(3,3-Difluoropyrrolidin-1-yl)-2-[6-(4-fluorophenyl)pyrrolo[3,2-b]pyridin-1-yl]ethanone], the IC50 (cloned human NR1/NR2B) is 316 nM.
